These results are taken from ChEMBL document CHEMBL1201862, “PubChem BioAssay data set” (2004).

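How tested: cells in 96-well plates exposed to compound for 48 hours at five concentrations. The concentration for 50% growth inhibition is given as GI50.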 Activity calls are given as the source filed them. No stated cut-off is given here; in the data, active = GI50 up to about 1.1 µM and inactive = higher. Some results are limits rather than exact numbers.

Among the test systems are SF-539; HL-60; RPMI-8226; DU-145; PC-3; SNB-75; A549; U-251; EKVX; MDA-MB-231; NCI-H522; SF-268; TK-10; HT-29; SF-295; SNB-19; MOLT-4; Malme-3M; OVCAR-4; 786-0.
Holding throughout (assay): NCI-60 cell line screen, 48 h

On to `O=C(NNC(=O)c1ccccc1O)c1cccc(Br)c1`, for which the GI50 in the assay on SF-539 is > 70 µM (inactive); in the assay with HL-60, 5.82 µM (inactive); in the assay on RPMI-8226 it was 15.2 µM (inactive); in the assay on DU-145 it was 30.2 µM (inactive); with PC-3 it was 44.8 µM (inactive); with SNB-75 it was > 71.8 µM (inactive). The GI50 was 25.5 µM (inactive) in the assay with A549; > 100 µM (inactive) in the assay on U-251; 23.6 µM (inactive) in the assay with EKVX; 18.2 µM (inactive) in the assay on MDA-MB-231; 6.25 µM (inactive) in the assay with NCI-H522; 24.9 µM (inactive) in the assay with SF-268. Moreover, the GI50 in the assay on TK-10 was > 100 µM (inactive); in the assay with HT-29, 43 µM (inactive); in the assay on SF-295 it was 27.3 µM (inactive); in the assay with SNB-19 it was 73.6 µM (inactive); with MOLT-4, 9.23 µM (inactive); in the assay on Malme-3M, 37.2 µM (inactive). The GI50 with OVCAR-4 is 45.5 µM (inactive); with 786-0, 44.9 µM (inactive).
Turning to `O=c1c2cc(S(=O)(=O)Nc3ccc(Cl)cc3Cl)ccc2ncn1NS(=O)(=O)c1cccc2ccccc12`, the GI50 was 38.3 µM (inactive) in the assay on SF-539; 14.5 µM (inactive) in the assay with HL-60; 21.1 µM (inactive) in the assay on RPMI-8226; 36.5 µM (inactive) in the assay with DU-145; 23.7 µM (inactive) with PC-3; 60.5 µM (inactive) in the assay with SNB-75. In addition, the GI50 is 36.9 µM (inactive) with A549; 58.2 µM (inactive) in the assay with U-251; 14.7 µM (inactive) in the assay with EKVX; 20.4 µM (inactive) in the assay with MDA-MB-231; 24 µM (inactive) in the assay on NCI-H522; 30.3 µM (inactive) with SF-268. Moreover, the GI50 in the assay with TK-10 was 85.7 µM (inactive); in the assay on HT-29 it was 32 µM (inactive); with SF-295, 37.4 µM (inactive); with SNB-19, 21.6 µM (inactive); with MOLT-4, 18.2 µM (inactive); with Malme-3M, > 100 µM (inactive). In addition, the GI50 was 41.7 µM (inactive) in the assay on OVCAR-4 and 42 µM (inactive) in the assay with 786-0.
For `CC(C)(C)c1cc(C(=O)C2Cc3ccccc3C(=O)O2)cc(C(C)(C)C)c1O` (stereo not given), the GI50 with SF-539 was 14.2 µM (inactive); in the assay on HL-60, 4.88 µM (inactive); in the assay with RPMI-8226 it was 5.93 µM (inactive); with DU-145 it was 14.8 µM (inactive); in the assay on PC-3, 11.7 µM (inactive); in the assay with SNB-75, 17.3 µM (inactive). Besides, the GI50 is 13.1 µM (inactive) with A549; 10.5 µM (inactive) in the assay with U-251; 12.3 µM (inactive) in the assay with EKVX; 12.1 µM (inactive) with MDA-MB-231; 11.6 µM (inactive) in the assay with NCI-H522; 14.5 µM (inactive) in the assay on SF-268. For the same compound, the GI50 was 15.3 µM (inactive) in the assay with TK-10; 14.4 µM (inactive) with HT-29; 14.1 µM (inactive) with SF-295; 11.8 µM (inactive) in the assay on SNB-19; 8.55 µM (inactive) in the assay on MOLT-4; 14.6 µM (inactive) with Malme-3M. For the same compound, the GI50 was 11 µM (inactive) in the assay with OVCAR-4 and 12.3 µM (inactive) in the assay with 786-0.
With `CCCCC(=C=C1CCCCC1O)C1CCCN1C(=O)OC(C)(C)C` (stereo not given), the GI50 is 18.7 µM (inactive) in the assay on SF-539; 11.1 µM (inactive) in the assay on HL-60; 12.6 µM (inactive) with RPMI-8226; 17.5 µM (inactive) with DU-145; 16.1 µM (inactive) with PC-3; 13.8 µM (inactive) in the assay on SNB-75. Also, the GI50 in the assay on A549 is 14.9 µM (inactive); in the assay on U-251 it was 15.9 µM (inactive); in the assay with EKVX, 14.9 µM (inactive); in the assay on MDA-MB-231, 16.1 µM (inactive); in the assay on NCI-H522, 17.1 µM (inactive); with SF-268, 17.3 µM (inactive). For the same compound, the GI50 in the assay on TK-10 was 16.1 µM (inactive); with HT-29 it was 14.3 µM (inactive); in the assay on SF-295, 14.8 µM (inactive); in the assay on SNB-19, 16.4 µM (inactive); in the assay on MOLT-4, 15.8 µM (inactive); in the assay with Malme-3M, 17.3 µM (inactive). Further, the values for the GI50 in the assay on OVCAR-4 and in the assay on 786-0 were 13.9 µM (inactive) and 16.1 µM (inactive), respectively.
`COC(=O)C1CCC(=O)N1C(c1ccc(OC)cc1)c1ccc(OC)cc1` (stereo not given): the GI50 with SF-539, with HL-60, with RPMI-8226, with DU-145, in the assay with PC-3 and in the assay with SNB-75 was > 100 µM (inactive) each time. In addition, the GI50 with A549, in the assay with U-251, with EKVX, in the assay on MDA-MB-231, in the assay on NCI-H522 and in the assay on SF-268 was > 100 µM (inactive) each time. In addition, the GI50 in the assay on TK-10, in the assay on HT-29, in the assay with SF-295, in the assay on SNB-19, in the assay on MOLT-4 and with Malme-3M was > 100 µM (inactive) throughout. For the same compound, the GI50 in the assay on OVCAR-4 and with 786-0 was > 100 µM (inactive) each time.
For `CN1C/C(=C\c2ccc(Cl)cc2)C(=O)/C(=C/c2ccc(Cl)cc2)C1`, the GI50 was 0.512 µM (active) in the assay with SF-539; 0.676 µM (active) in the assay with HL-60; 0.193 µM (active) in the assay with RPMI-8226; 2.54 µM (inactive) in the assay with DU-145; 1.77 µM (inactive) with PC-3; 0.635 µM (active) in the assay on SNB-75. In addition, the GI50 in the assay with A549 is 2.2 µM (inactive); in the assay on U-251, 0.454 µM (active); with EKVX, 15.6 µM (inactive); in the assay with MDA-MB-231, 1.12 µM (active); in the assay with NCI-H522, 1.97 µM (inactive); with SF-268, 1.63 µM (inactive). Also, the GI50 is 8.75 µM (inactive) with TK-10; 0.294 µM (active) in the assay with HT-29; 0.667 µM (active) with SF-295; 1.25 µM (inactive) in the assay on SNB-19; 0.326 µM (active) in the assay on MOLT-4; 14.3 µM (inactive) with Malme-3M. Further, the GI50 with OVCAR-4 is 1.11 µM (active); with 786-0 it was 0.354 µM (active).
Take `CC(=O)NC1=CC(=O)c2cc(C)cc(O)c2C1=O`: the GI50 is 6.84 µM (inactive) with SF-539; 1.88 µM (inactive) in the assay with HL-60; 2.92 µM (inactive) with RPMI-8226; 5.82 µM (inactive) in the assay with DU-145; 12.5 µM (inactive) in the assay with PC-3; 18.7 µM (inactive) in the assay on SNB-75. In addition, the GI50 is 7.5 µM (inactive) in the assay on A549; 9.33 µM (inactive) with U-251; 17.2 µM (inactive) in the assay on EKVX; 7.19 µM (inactive) in the assay with MDA-MB-231; 8.83 µM (inactive) in the assay on NCI-H522; 9.33 µM (inactive) in the assay with SF-268. Moreover, the GI50 was 21 µM (inactive) with TK-10; 16.9 µM (inactive) in the assay with HT-29; 19.2 µM (inactive) in the assay on SF-295; 28.1 µM (inactive) in the assay with SNB-19; 4.85 µM (inactive) in the assay with MOLT-4; 1.9 µM (inactive) with Malme-3M. Moreover, the values for the GI50 in the assay on OVCAR-4 and in the assay on 786-0 were 8.49 µM (inactive) and 13.7 µM (inactive), respectively.
As to `COc1cc2c(=O)cnoc2cc1O`, the GI50 with SF-539, in the assay with HL-60, with RPMI-8226, in the assay with DU-145, in the assay on PC-3 and in the assay with SNB-75 was > 100 µM (inactive) in each case. In addition, the GI50 with A549, in the assay on U-251, in the assay with EKVX, with MDA-MB-231, with NCI-H522 and in the assay with SF-268 was > 100 µM (inactive) each time. Besides, the GI50 in the assay on TK-10, in the assay on HT-29, in the assay with SF-295, in the assay with SNB-19, with MOLT-4 and with Malme-3M was > 100 µM (inactive) each time. Besides, the GI50 with OVCAR-4 and in the assay on 786-0 was > 100 µM (inactive) each time.
With `Cc1cc2c(c3oc(C(O)(CO)C4CO4)cc(=O)c13)C(=O)c1c(O)cccc1C2=O` (stereo not given), the GI50 with SF-539 is 0.000662 µM (active); in the assay with HL-60 it was 0.000377 µM (active); in the assay with RPMI-8226 it was 0.000313 µM (active); in the assay with DU-145, 0.000552 µM (active); in the assay on PC-3, 0.000841 µM (active); with SNB-75 it was 0.00122 µM (active). Further, the GI50 in the assay with A549 was 0.00149 µM (active); with U-251, 0.000826 µM (active); with EKVX, 0.0023 µM (active); in the assay on MDA-MB-231, 0.00213 µM (active); in the assay with NCI-H522 it was 0.0012 µM (active); in the assay with SF-268, 0.00156 µM (active). Besides, the GI50 was 0.00244 µM (active) with TK-10; 0.00104 µM (active) in the assay on HT-29; 0.00139 µM (active) with SF-295; 0.00119 µM (active) in the assay with SNB-19; 0.000145 µM (active) in the assay with MOLT-4; 0.00169 µM (active) in the assay with Malme-3M. For the same compound, the GI50 was 0.00158 µM (active) in the assay on OVCAR-4 and 0.000439 µM (active) in the assay with 786-0.
`OC(O)(C(F)(F)F)C(F)(F)F`: the GI50 with SF-539, in the assay on HL-60, in the assay with RPMI-8226, with DU-145, in the assay on PC-3 and in the assay on SNB-75 was > 100 µM (inactive) each time. In addition, the GI50 with A549, in the assay with U-251, in the assay on EKVX, in the assay on MDA-MB-231, with NCI-H522 and in the assay on SF-268 was > 100 µM (inactive) throughout. Besides, the GI50 in the assay on TK-10, in the assay with HT-29, with SF-295, with SNB-19, with MOLT-4 and in the assay on Malme-3M was > 100 µM (inactive) each time. Moreover, the GI50 in the assay on OVCAR-4 and in the assay with 786-0 was > 100 µM (inactive) in each case.
